Experimental data as given in patent publication US5817692A, “Endoperoxides useful as antiparasitic agents” (priority 1996, dated 1998).
Read-outs that look alike come from different tables or passages of the source.

Tests used:
[1] = tested on: Toxoplasma gondii; experiment: inhibition of intracellular replication of T. gondii in infected L929 cells, uracil incorporation assay; format: cell-based; set-up: Activity, Mean: unit not given here; conditions: for Activity, Mean: uracil incorporation; for inhibition at 0.1 µM / inhibition at 1 µM / inhibition at 10 µM / inhibition at 50 µM: Toxoplasma gondii, L929, read-out: Activity, % of control (inhibition)
Description: Toxoplasma gondii is the causative agent of cerebral toxoplasmic encephalitis, an AIDS-related opportunistic infection. The biological activity of the endoperoxide JHU 2886 of the present invention was measured against Toxoplasma gondii cultured in L929 cells. The inhibitory activity of the synthetic organic endoperoxide was tested by measuring the intracellular replication of T. gondii in infected L929 cells. The inhibition of the intracellular replication of T. gondii was determined using the uracil incorporation assay (20). […] This compound is referred to as JHU 2886 in Table 1. In this experiment atovaquone and artemisinin were used as positive controls. Atovaquone is a broad-spectrum anti-infective drug having antimalarial and antitoxoplasmosis activity (19). | measured using the MTT assay (Promega kit) and inhibition of the | intracellular replication of T. gondii was determined using the uracil | incorporation assay.

[2] = tested on: L929 cells; experiment: cytotoxicity to L929 cells, MTT assay (viability and replication); format: cell-based; set-up: Toxicity, Mean: unit not given here; conditions: for Toxicity, Score / Toxicity, Mean / inhibition at 0.1 µM / inhibition at 1 µM / inhibition at 10 µM / inhibition at 50 µM: L929 cells; for Toxicity, Mean: MTT; for inhibition at 0.1 µM / inhibition at 1 µM / inhibition at 10 µM / inhibition at 50 µM: Mus musculus, read-out: Toxicity, % of control (inhibition)
Description: Toxoplasma gondii is the causative agent of cerebral toxoplasmic encephalitis, an AIDS-related opportunistic infection. The biological activity of the endoperoxide JHU 2886 of the present invention was measured against Toxoplasma gondii cultured in L929 cells.
More specifically, the cytotoxicity of synthetic organic endoperoxide JHU 2886 was tested in L929 cells by measuring the viability and replication of exposed cells. The cytotoxicity of the compound to the cultured cells was measured using the MTT assay (Promega kit), according to the procedure of Carmichael et al. (18). MTT is an abbreviation for [3-(4,5-dimethylthiazol-2-yl)-2,5-dephenyltetrazolium bromide].
This compound is referred to as JHU 2886 in Table 1. In this experiment atovaquone and artemisinin were used as positive controls. Atovaquone is a broad-spectrum anti-infective drug having antimalarial and antitoxoplasmosis activity (19).
^1 The cytotoxicity of each compound for the cultured cells was
measured using the MTT assay (Promega kit) and inhibition of the […]

O=C1C(O)=C([C@H]2CC[C@H](c3ccc(Cl)cc3)CC2)C(=O)c2ccccc21 [Atovaquone]
therapeutic index (ratio of activity to toxicity), quotient ([1]; 1 μM, T. gondii activity / L929 toxicity): 5.6
Activity, Score ([1]; 24 hours, dose 0.1 μM): 4 (>70%-≤90%)
Activity, Mean ([1]; 24 hours, dose 0.1 μM): 3096
Activity, Score ([1]; 24 hours, dose 1.0 μM): 5 (>90%)
Activity, Mean ([1]; 24 hours, dose 1.0 μM): 693
Activity, Score ([1]; 24 hours, dose 10.0 μM): 5 (>90%)
Activity, Mean ([1]; 24 hours, dose 10.0 μM): 612
Activity, Score ([1]; 24 hours, dose 50.0 μM): 5 (>90%)
Activity, Mean ([1]; 24 hours, dose 50.0 μM): 1042
Activity, Score ([1]; 48 hours, dose 0.1 μM): 3 (>40%-≤70%)
Activity, Mean ([1]; 48 hours, dose 0.1 μM): 6865
Activity, Score ([1]; 48 hours, dose 1.0 μM): 5 (>90%)
Activity, Mean ([1]; 48 hours, dose 1.0 μM): 729
Activity, Score ([1]; 48 hours, dose 10.0 μM): 5 (>90%)
Activity, Mean ([1]; 48 hours, dose 10.0 μM): 399
Activity, Score ([1]; 48 hours, dose 50.0 μM): 5 (>90%)
Activity, Mean ([1]; 48 hours, dose 50.0 μM): 236
Activity, Score ([1]; 72 hours, dose 0.1 μM): 3 (>40%-≤70%)
Activity, Mean ([1]; 72 hours, dose 0.1 μM): 2940
Activity, Score ([1]; 72 hours, dose 1.0 μM): 4 (>70%-≤90%)
Activity, Mean ([1]; 72 hours, dose 1.0 μM): 1272
Activity, Score ([1]; 72 hours, dose 10.0 μM): 5 (>90%)
Activity, Mean ([1]; 72 hours, dose 10.0 μM): 446
Activity, Score ([1]; 72 hours, dose 50.0 μM): 5 (>90%)
Activity, Mean ([1]; 72 hours, dose 50.0 μM): 230
inhibition at 0.1 µM ([1]; 24 hours, dose 0.1 μM): 78.4%
inhibition at 1 µM ([1]; 24 hours, dose 1.0 μM): 95.2%
inhibition at 10 µM ([1]; 24 hours, dose 10.0 μM): 95.7%
inhibition at 50 µM ([1]; 24 hours, dose 50.0 μM): 92.7%
inhibition at 0.1 µM ([1]; 48 hours, dose 0.1 μM): 60.1%
inhibition at 1 µM ([1]; 48 hours, dose 1.0 μM): 95.8%
inhibition at 10 µM ([1]; 48 hours, dose 10.0 μM): 97.7%
inhibition at 50 µM ([1]; 48 hours, dose 50.0 μM): 98.6%
inhibition at 10 µM ([1]; 72 hours, dose 10.0 μM): 93.8%
inhibition at 50 µM ([1]; 72 hours, dose 50.0 μM): 96.8%
Toxicity, Score ([2]; 24 hours, dose 0.1 μM): 1 (≤20%)
Toxicity, Mean ([2]; 24 hours, dose 0.1 μM): 0.095
Toxicity, Score ([2]; 24 hours, dose 1.0 μM): 1 (≤20%)
Toxicity, Mean ([2]; 24 hours, dose 1.0 μM): 0.093
Toxicity, Score ([2]; 24 hours, dose 10.0 μM): 1 (≤20%)
Toxicity, Mean ([2]; 24 hours, dose 10.0 μM): 0.092
Toxicity, Score ([2]; 24 hours, dose 50.0 μM): 2 (>20%-≤40%)
Toxicity, Mean ([2]; 24 hours, dose 50.0 μM): 0.089
Toxicity, Score ([2]; 48 hours, dose 0.1 μM): 0
Toxicity, Mean ([2]; 48 hours, dose 0.1 μM): 0.214
Toxicity, Score ([2]; 48 hours, dose 1.0 μM): 1 (≤20%)
Toxicity, Mean ([2]; 48 hours, dose 1.0 μM): 0.211
Toxicity, Score ([2]; 48 hours, dose 10.0 μM): 1 (≤20%)
Toxicity, Mean ([2]; 48 hours, dose 10.0 μM): 0.204
Toxicity, Score ([2]; 48 hours, dose 50.0 μM): 3 (>40%-≤70%)
Toxicity, Mean ([2]; 48 hours, dose 50.0 μM): 0.106
Toxicity, Score ([2]; 72 hours, dose 0.1 μM): 0
Toxicity, Mean ([2]; 72 hours, dose 0.1 μM): 0.473
Toxicity, Score ([2]; 72 hours, dose 1.0 μM): 0
Toxicity, Mean ([2]; 72 hours, dose 1.0 μM): 0.464
Toxicity, Score ([2]; 72 hours, dose 10.0 μM): 0
Toxicity, Mean ([2]; 72 hours, dose 10.0 μM): 0.456
Toxicity, Score ([2]; 72 hours, dose 50.0 μM): 3 (>40%-≤70%)
Toxicity, Mean ([2]; 72 hours, dose 50.0 μM): 0.161
inhibition at 0.1 µM ([2]; 24 hours, dose 0.1 μM): 15.6%
inhibition at 1 µM ([2]; 24 hours, dose 1.0 μM): 17.4%
inhibition at 10 µM ([2]; 24 hours, dose 10.0 μM): 18.3%
inhibition at 50 µM ([2]; 24 hours, dose 50.0 μM): 21.2%
inhibition at 0.1 µM ([2]; 48 hours, dose 0.1 μM): 0%
inhibition at 1 µM ([2]; 48 hours, dose 1.0 μM): 1.09%
inhibition at 10 µM ([2]; 48 hours, dose 10.0 μM): 4.53%
inhibition at 50 µM ([2]; 48 hours, dose 50.0 μM): 50.2%
inhibition at 0.1 µM ([2]; 72 hours, dose 0.1 μM): 0%
inhibition at 1 µM ([2]; 72 hours, dose 1.0 μM): 0%
inhibition at 10 µM ([2]; 72 hours, dose 10.0 μM): 0%
inhibition at 50 µM ([2]; 72 hours, dose 50.0 μM): 63.2%

c1ccc(C23CCCC(c4ccccc4)(CC2)OO3)cc1 [JHU 2886]
antiparasitic activity, in words ([1]; 24 and 48 hours, all concentrations tested): significant antiparasitic activity
Activity, Score ([1]; 24 hours, dose 0.1 μM): 2 (>20%-≤40%)
Activity, Mean ([1]; 24 hours, dose 0.1 μM): 6079
Activity, Score ([1]; 24 hours, dose 1.0 μM): 3 (>40%-≤70%)
Activity, Mean ([1]; 24 hours, dose 1.0 μM): 2668
Activity, Score ([1]; 24 hours, dose 10.0 μM): 4 (>70%-≤90%)
Activity, Mean ([1]; 24 hours, dose 10.0 μM): 1967
Activity, Score ([1]; 24 hours, dose 50.0 μM): 4 (>70%-≤90%)
Activity, Mean ([1]; 24 hours, dose 50.0 μM): 2104
Activity, Score ([1]; 48 hours, dose 0.1 μM): 1 (≤20%)
Activity, Mean ([1]; 48 hours, dose 0.1 μM): 14841
Activity, Score ([1]; 48 hours, dose 1.0 μM): 1 (≤20%)
Activity, Mean ([1]; 48 hours, dose 1.0 μM): 12880
Activity, Score ([1]; 48 hours, dose 10.0 μM): 4 (>70%-≤90%)
Activity, Mean ([1]; 48 hours, dose 10.0 μM): 4428
Activity, Score ([1]; 48 hours, dose 50.0 μM): 4 (>70%-≤90%)
Activity, Mean ([1]; 48 hours, dose 50.0 μM): 1808
antiparasitic activity, in words ([1]; 72 hours, 1 μM and above): significant activity
Activity, Score ([1]; 72 hours, dose 0.1 μM): 1 (≤20%)
Activity, Mean ([1]; 72 hours, dose 0.1 μM): 6934
Activity, Score ([1]; 72 hours, dose 1.0 μM): 1 (≤20%)
Activity, Mean ([1]; 72 hours, dose 1.0 μM): 6219
Activity, Score ([1]; 72 hours, dose 10.0 μM): 4 (>70%-≤90%)
Activity, Mean ([1]; 72 hours, dose 10.0 μM): 1321
Activity, Score ([1]; 72 hours, dose 50.0 μM): 4 (>70%-≤90%)
Activity, Mean ([1]; 72 hours, dose 50.0 μM): 1252
inhibition at 1 µM ([1]; 24 hours, dose 1.0 μM): 69.6%
inhibition at 10 µM ([1]; 24 hours, dose 10.0 μM): 77.6%
inhibition at 50 µM ([1]; 24 hours, dose 50.0 μM): 76%
inhibition at 0.1 µM ([1]; 48 hours, dose 0.1 μM): 6.18%
inhibition at 1 µM ([1]; 48 hours, dose 1.0 μM): 18.6%
inhibition at 10 µM ([1]; 48 hours, dose 10.0 μM): 72%
inhibition at 50 µM ([1]; 48 hours, dose 50.0 μM): 88.6%
inhibition at 0.1 µM ([1]; 72 hours, dose 0.1 μM): 3.24%
inhibition at 1 µM ([1]; 72 hours, dose 1.0 μM): 13.2%
inhibition at 10 µM ([1]; 72 hours, dose 10.0 μM): 81.6%
inhibition at 50 µM ([1]; 72 hours, dose 50.0 μM): 82.5%
toxicity in L929 cells, in words ([2]; 50 μM): some toxicity
toxicity in L929 cells, in words ([2]; 24, 48 and 72 hours, concentrations as high as 10 μM): little toxicity
Toxicity, Score ([2]; 24 hours, dose 0.1 μM): 1 (≤20%)
Toxicity, Mean ([2]; 24 hours, dose 0.1 μM): 0.129
Toxicity, Score ([2]; 24 hours, dose 1.0 μM): 0
Toxicity, Mean ([2]; 24 hours, dose 1.0 μM): 0.133
Toxicity, Score ([2]; 24 hours, dose 10.0 μM): 0
Toxicity, Mean ([2]; 24 hours, dose 10.0 μM): 0.130
Toxicity, Score ([2]; 24 hours, dose 50.0 μM): 2 (>20%-≤40%)
Toxicity, Mean ([2]; 24 hours, dose 50.0 μM): 0.089
Toxicity, Score ([2]; 48 hours, dose 0.1 μM): 0
Toxicity, Mean ([2]; 48 hours, dose 0.1 μM): 0.227
Toxicity, Score ([2]; 48 hours, dose 1.0 μM): 0
Toxicity, Mean ([2]; 48 hours, dose 1.0 μM): 0.219
Toxicity, Score ([2]; 48 hours, dose 10.0 μM): 0
Toxicity, Mean ([2]; 48 hours, dose 10.0 μM): 0.217
Toxicity, Score ([2]; 48 hours, dose 50.0 μM): 2 (>20%-≤40%)
Toxicity, Mean ([2]; 48 hours, dose 50.0 μM): 0.147
Toxicity, Score ([2]; 72 hours, dose 0.1 μM): 0
Toxicity, Mean ([2]; 72 hours, dose 0.1 μM): 0.479
Toxicity, Score ([2]; 72 hours, dose 1.0 μM): 0
Toxicity, Mean ([2]; 72 hours, dose 1.0 μM): 0.460
Toxicity, Score ([2]; 72 hours, dose 10.0 μM): 0
Toxicity, Mean ([2]; 72 hours, dose 10.0 μM): 0.448
Toxicity, Score ([2]; 72 hours, dose 50.0 μM): 2 (>20%-≤40%)
Toxicity, Mean ([2]; 72 hours, dose 50.0 μM): 0.275
inhibition at 0.1 µM ([2]; 24 hours, dose 0.1 μM): 0.26%
inhibition at 1 µM ([2]; 24 hours, dose 1.0 μM): 0%
inhibition at 10 µM ([2]; 24 hours, dose 10.0 μM): 0%
inhibition at 50 µM ([2]; 24 hours, dose 50.0 μM): 31.2%
inhibition at 0.1 µM ([2]; 48 hours, dose 0.1 μM): 0%
inhibition at 1 µM ([2]; 48 hours, dose 1.0 μM): 0%
inhibition at 10 µM ([2]; 48 hours, dose 10.0 μM): 0%
inhibition at 50 µM ([2]; 48 hours, dose 50.0 μM): 30.4%
inhibition at 0.1 µM ([2]; 72 hours, dose 0.1 μM): 0%
inhibition at 1 µM ([2]; 72 hours, dose 1.0 μM): 0%
inhibition at 10 µM ([2]; 72 hours, dose 10.0 μM): 0%
inhibition at 50 µM ([2]; 72 hours, dose 50.0 μM): 37.4%
